Experimental data as given in ChEMBL document CHEMBL1143627, “Enantiomerically pure hexahydropyrazinoquinolines as potent and selective dopamine 3 subtype receptor ligands” (J Med Chem, 2005).

Legend:
D(2) dopamine receptor = D(2) dopamine receptor (Rattus norvegicus, UniProt P61169); assay: Inhibition of [3H]spiperone binding to Dopamine receptor D2-like in rat caudate-putamen membrane; assay type: cell membranes
D(3) dopamine receptor = D(3) dopamine receptor (Rattus norvegicus, UniProt P19020); assay: biochemical
D(3) dopamine receptor, sequence (P19020 whole entry): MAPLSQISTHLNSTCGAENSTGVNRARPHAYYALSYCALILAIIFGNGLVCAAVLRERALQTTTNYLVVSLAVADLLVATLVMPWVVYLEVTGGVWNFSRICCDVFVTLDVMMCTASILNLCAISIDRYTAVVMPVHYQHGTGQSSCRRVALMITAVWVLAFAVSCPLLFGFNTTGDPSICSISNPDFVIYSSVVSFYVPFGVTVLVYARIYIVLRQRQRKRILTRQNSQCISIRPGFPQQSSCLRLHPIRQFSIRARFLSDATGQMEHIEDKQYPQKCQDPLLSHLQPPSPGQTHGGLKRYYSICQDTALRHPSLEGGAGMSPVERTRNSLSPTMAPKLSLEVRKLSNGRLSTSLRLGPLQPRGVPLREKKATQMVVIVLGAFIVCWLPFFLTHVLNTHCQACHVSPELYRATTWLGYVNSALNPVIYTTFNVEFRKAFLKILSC
Description: Inhibition of [3H]-PD 128907 binding to Dopamine receptor D3 in rat ventral striatum

D(2) dopamine receptor, sequence (P61169 whole entry): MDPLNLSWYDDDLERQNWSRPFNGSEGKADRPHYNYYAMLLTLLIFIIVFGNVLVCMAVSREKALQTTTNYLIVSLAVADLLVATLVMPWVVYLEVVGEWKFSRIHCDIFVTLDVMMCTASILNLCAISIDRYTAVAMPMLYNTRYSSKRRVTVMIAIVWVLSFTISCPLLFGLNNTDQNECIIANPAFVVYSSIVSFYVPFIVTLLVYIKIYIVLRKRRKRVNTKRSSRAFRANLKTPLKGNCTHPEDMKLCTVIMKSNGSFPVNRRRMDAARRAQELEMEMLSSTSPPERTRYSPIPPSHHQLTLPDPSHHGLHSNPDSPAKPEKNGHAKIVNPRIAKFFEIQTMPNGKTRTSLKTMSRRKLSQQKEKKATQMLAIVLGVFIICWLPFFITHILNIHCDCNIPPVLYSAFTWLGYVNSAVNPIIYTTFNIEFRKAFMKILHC

Row | Structure (SMILES) | Ki (D(2) dopamine receptor) [nM] | Ki (D(3) dopamine receptor) [nM]
1 | COc1cccc2c1CC[C@@H]1CN(CCCCNC(=O)c3ccc4ccccc4c3)CCN21 | 644 | 8.3
2 | O=C(NCCCCN1CCN2c3ccccc3CCC2C1)c1ccc2ccccc2c1 (stereo not drawn) | 1570 | 
3 | COc1ccc2c(c1)N1CCN(CCCCNC(=O)c3ccc4ccccc4c3)C[C@H]1CC2 | 1720 | 44
4 | COc1ccc2c(c1)CC[C@@H]1CN(CC[C@H]3CC[C@H](NC(=O)c4ccc5ccccc5c4)CC3)CCN21 | > 10000 | 5.7
5 | COc1ccc2c(c1)CC[C@H]1CN(CCC3CCC(NC(=O)c4ccc5ccccc5c4)CC3)CCN21 (stereo partly drawn) | > 10000 | 10
6 | COc1ccc2c(c1)CC[C@@H]1CN(CCN3CCC(NC(=O)c4ccc5ccccc5c4)CC3)CCN21 | > 50000 | 4640
7 | COc1cccc2c1CC[C@H]1CN(CCCCNC(=O)c3ccc4ccccc4c3)CCN21 | 659 | 9.3
8 | O=C(NCCCCN1CCN2c3ccccc3CC[C@@H]2C1)c1ccc2ccccc2c1 | 585 | 19
9 | COc1cccc2c1N1CCN(CCCCNC(=O)c3ccc4ccccc4c3)C[C@@H]1CC2 | 88 | 
10 | COc1ccc2c(c1)N1CCN(CCCCNC(=O)c3ccc4ccccc4c3)C[C@@H]1CC2 | 990 | 96

Now from value to compound:

Row | Ki (D(2) dopamine receptor) [nM] | Ki (D(3) dopamine receptor) [nM] | Structure (SMILES)
11 | > 50000 | 126 | COc1ccc2c(c1)CC[C@H]1CN(CCCCNC(=O)c3ccc4ccccc4c3)CCN21
12 | > 25000 | 7160 | COc1ccc2c(c1)CC[C@H]1CN(CCN3CCC(NC(=O)c4ccc5ccccc5c4)CC3)CCN21
13 | > 100000 | 67 | COc1ccc2c(c1)CC[C@@H]1CN(CCCCNC(=O)c3ccc4ccccc4c3)CCN21
14 | 312 |  | COc1cccc2c1N1CCN(CCCCNC(=O)c3ccc4ccccc4c3)C[C@H]1CC2
15 | 243 |  | O=C(CCCN1CCN2c3ccccc3CCC2C1)c1ccc(F)cc1 (stereo not drawn)
16 | 180 | 16 | O=C(NCCCCN1CCN2c3ccccc3CC[C@H]2C1)c1ccc2ccccc2c1
